# Source: patent publication US20240374581A1, “SALT TYPES OF TRICYCLIC TETRAHYDRO ISOQUINOLINE DERIVATIVE” (JIANGSU HENGRUI PHARMACEUTICALS CO., LTD., priority 2021, published 2024)
# Experiments:
# [1] = system: ERα Y537S mutant-expressing MCF7 cells; assay: Inhibition of proliferation of ERα mutant-expressing MCF7 cells; format: cell-based; details: Homo sapiens, 144 h, read-out: IC50, inhibitory effect on the proliferation of ERα mutant-expressing MCF7 cells
# Text: The mutant estrogen receptor α (ERα) Y537S of human ERα protein was obtained by site-directed mutagenesis in a two-primer PCR manner using the cDNA of wild-type ESR1 gene (Accession No. NM000125) as a template. The sequences of the primers used in the mutation are as follows (the underlined nucleotides are the sites of mutation): Y537S: F-AAGAACGTGGTGCCCCTCTCTGACCTGCTGCTGGAGATG (SEQ ID NO: 1); R-CATCTCCAGCAGCAGGTCAGAGAGGGGCACCACGTTCTT (SEQ ID NO: 2). The cDNA of the mutant ESR1 was cloned into the lentiviral vector of interest pCDH-CMV-MCS-EF1-Puro. The lentiviral plasmid bearing the mutant ESR1 gene sequence and the lentiviral packaging plasmid were then transfected into HEK-293T cells (ATCC, CRL-3216) by using Lipofectamine 3000 Transfection Reagent (ThermoFisher Scientific, Cat #L3000075). […]
# The ERα mutant-expressing MCF7 cells were cultured in an MEM (GE Healthcare, SH30024.01) complete medium containing 10% fetal bovine serum. […] The plate was let stand at room temperature for 10 min, and the luminescence signal value was read using a multilabel microplate reader (PerkinElmer, VICTOR 3). The IC50 value for the inhibitory activity of the compound was calculated according to the compound concentration and the luminescence signal value and is shown in Table 3.
# CYP3A4 = CYP3A4 (Homo sapiens (Human), UniProt P08684); assay: Inhibition of site of metabolism of midazolam in human liver microsome CYP3A4; format: in vitro ADME; details: 30 min
# Sequence of CYP3A4 (P08684 whole entry): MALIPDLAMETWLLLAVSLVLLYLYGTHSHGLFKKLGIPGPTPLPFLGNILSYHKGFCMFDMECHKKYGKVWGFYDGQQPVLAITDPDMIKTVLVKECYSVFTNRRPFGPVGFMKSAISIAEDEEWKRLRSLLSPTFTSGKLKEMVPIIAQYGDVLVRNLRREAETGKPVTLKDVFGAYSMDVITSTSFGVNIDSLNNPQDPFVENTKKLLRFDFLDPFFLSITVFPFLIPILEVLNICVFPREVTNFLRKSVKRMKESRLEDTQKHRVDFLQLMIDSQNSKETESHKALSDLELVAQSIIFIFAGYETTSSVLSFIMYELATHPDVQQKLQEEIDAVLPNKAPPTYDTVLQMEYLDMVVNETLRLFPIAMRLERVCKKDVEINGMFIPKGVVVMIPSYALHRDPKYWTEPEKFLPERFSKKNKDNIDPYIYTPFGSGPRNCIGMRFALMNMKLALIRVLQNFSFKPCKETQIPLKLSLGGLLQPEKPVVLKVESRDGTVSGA
# Description: • 1. Phosphate buffer (20×PBS, purchased from Sangon); • 2. NADPH (ACROS, A2646-71-1); • 3. Human liver microsome (Corning Gentest, Cat No. 452161, Lot No. 9050002, Donor, 36); • 4. ABI QTrap 4000 LC-MS System (AB Sciex); • 5. ZORBAX Extend-C18, 3×50 mm, 3.5 m (Agilent, USA); • 6. CYP probe substrate (midazolam, TRC, M343000/3 μM) and positive control inhibitor (ketoconazole, SIGMA, Cat No. K1003-100MG).
# A 100 mM PBS buffer was prepared. A 0.25 mg/mL microsome solution, a 7.5 mM MgCl2 and a 5 mM NADPH solution were prepared using the buffer. A 30 mM stock solution was diluted with DMSO to obtain 30 mM, 10 mM, 3 mM, 1 mM, 0.3 mM, 0.03 mM, 0.003 mM and 0 mM serial solutions I, which were further diluted 200-fold with phosphate buffer (PBS) to obtain serial test solutions II (150, 50, 15, 5, 1.5, 0.15, 0.015 and 0 μM). A midazolam working solution was diluted with PBS to 15 μM. 40 μL of a 0.25 mg/mL microsome solution prepared in 7.5 mM MgCl2 and 20 μL of each of the […] midazolam working solution and the compound working solutions (150, 50, 15, 5, 1.5, 0.15, 0.015 and 0 μM) were measured out and well mixed. Ketoconazole at the same concentration was used in place of the compound as a positive control group. […]
# The IC50 value of the drug for the site of metabolism of midazolam in CYP3A4 was calculated by Graphpad Prism and is shown in Table 5.
# [2] = Influencing factor stability study
smiles,measurement,setting,value
"[2H]C1([2H])Oc2cc3c(cc2O1)[C@@H](c1ccc(NC2CN(CCCF)C2)cn1)N(CC(F)(F)CO)[C@H](C)C3 [Compound 1, 2,2-Difluoro-3-((5S,7R)-5-(5-((1-(3-fluoropropyl)azetidin-3-yl)amino)pyridin-2-yl)-7-methyl-7,8-dihydro-[1,3]dioxolo[4,5-g]isoquinolin-6(5H)-yl-2,2-d2)propan-1-ol]",IC50,[1],0.00136 µM
same,IC50,CYP3A4,15.4 µM
same,Crystal form,"[2]; 40° C., 1 month",Amorphous form
same,Purity (%),"[2]; 40° C., 1 month",95.4%
same,Crystal form,"[2]; 40° C., 5 days",Amorphous form
same,Purity (%),"[2]; 40° C., 5 days",96.7%
same,Crystal form,"[2]; 40° C., 10 days",Amorphous form
same,Purity (%),"[2]; 40° C., 10 days",96.5%
same,Crystal form,"[2]; 60° C., 1 month",Amorphous form
same,Purity (%),"[2]; 60° C., 1 month",87.6%
same,Crystal form,"[2]; 60° C., 5 days",Amorphous form
same,Purity (%),"[2]; 60° C., 5 days",95.7%
same,Crystal form,"[2]; 60° C., 10 days",Amorphous form
same,Purity (%),"[2]; 60° C., 10 days",94.2%
same,behaviour under the high-humidity conditions (conclusion),"[2]; 75% RH and 92.5% RH, 30 days",deliquesced
same,Crystal form,"[2]; 75% RH, 1 month",Deliquescence
same,Purity (%),"[2]; 75% RH, 1 month",96.9%
same,Crystal form,"[2]; 75% RH, 5 days",Amorphous form
same,Purity (%),"[2]; 75% RH, 5 days",97.0%
same,Crystal form,"[2]; 75% RH, 10 days",Amorphous form
same,Purity (%),"[2]; 75% RH, 10 days",97.0%
same,Crystal form,"[2]; 92.5% RH, 1 month",Deliquescence
same,Purity (%),"[2]; 92.5% RH, 1 month",97.0%
same,Crystal form,"[2]; 92.5% RH, 5 days",Amorphous form
same,Purity (%),"[2]; 92.5% RH, 5 days",96.9%
same,Crystal form,"[2]; 92.5% RH, 10 days",Amorphous form
same,Purity (%),"[2]; 92.5% RH, 10 days",97.0%
same,Crystal form,"[2]; 4500 Lux, 1 month",Amorphous form
same,Purity (%),"[2]; 4500 Lux, 1 month",71.7%
same,Crystal form,"[2]; 4500 Lux, 5 days",Amorphous form
same,Purity (%),"[2]; 4500 Lux, 5 days",94.0%
same,Crystal form,"[2]; 4500 Lux, 10 days",Amorphous form
same,Purity (%),"[2]; 4500 Lux, 10 days",89.9%
same,Crystal form,"[2]; Initial, 0 days",Amorphous form
same,Purity (%),"[2]; Initial, 0 days",97.1%
